Experiments:
[1] = tested on: M2-induced THP-1 macrophages; assay: Secreted CCL18 and IL-1β in THP-1 supernatants by ELISA; format: cell-based, human
Method: FIGS. 6A-6D show graphical data representative of various marker levels measured from M2-induced THP-1 macrophages treated with different concentrations of drugs for 48 hours (FIGS. 6A and 6B) or for 2 hours, then displaced with fresh medium and cultured for the remaining 46 hours (FIGS. 6C and 6D). In both cases, cell supernatants were collected and secreted CCL18 protein and IL-1β was detected by ELISA.
Further, to ensure that the above mRNA analyses accurately reflected the levels of anti-inflammatory cytokines produced by IL-4, IL-6 plus IL-13 stimulated THP-1 cells, the concentrations of CCL18 and IL-1β polypeptides in the THP-1 supernatants were quantitated by ELISA assay.
(§1) CCL18 and IL-1β were quantified in induced THP-1 cell supernatants using a human DuoSet ELISA Development System (R&D Systems Europe, Abingdon, UK: #DY394-05) and an IL-1 beta Human ELISA Kit (Thermo Fisher Scientific, Waltham, MA; #BMS224-2) as described by manufactures. BALF samples were analyzed for mouse IFN-γ using ELISA MAX™ Deluxe (Biolegend, San Diego, CA; #430804).
Additionally, cell supernatants were collected and secreted CCL18 protein was detected by ELISA.

BM-induced mice = assay: Bleomycin-induced pulmonary fibrosis, markers in bronchoalveolar lavage cells and fluid; format: in vivo, C57BL/6 mice
Method: Fresh water and folate-deficient diet were freely available.
After 2 hours, mice were sacrificed using CO2 asphyxiation and an incision in the skin from the abdomen to neck was immediately made to expose the lungs and trachea. A small cut in the upper trachea was then introduced for insertion of a blunted, 22-gauge needle, and a nylon string was tied around the trachea to seal the trachea around the needle. The trachea (containing the inserted needle), lungs and heart were then removed en masse by carefully cutting the connective tissue beneath the lungs, and the bronchus of left lung was clipped with a Dieffenbach vessel clip. The right lung was injected with PBS and aspirated 3 times using a 1 ml syringe, and the recovered lavage fluid was saved on ice.
Bronchoalveolar lavage fluid (BALF) was then analyzed to determine how the targeted TLR7 agonist works. BALF samples were centrifuged at 1500 rpm for 5 min at 4° C., and the supernatant was aliquoted and stored at −80° C., for cytokine/chemokine analyses. Cell pellets were resuspended and cultured in pre-warmed RPMI 1640 medium for 2 hours and then washed 3x with pre-warmed PBS prior to harvesting for qPCR assay. The right lung was then tied with a nylon string and used for subsequent analysis of hydroxyproline content. The left lung was inflated with 1 ml PBS using the inserted syringe and transferred to 10% formalin solution for subsequent histological analyses.
as §1

[2] = tested on: M2-induced human monocyte-derived macrophages; assay: Reprogramming of M2-induced human monocyte-derived macrophages with FA-glucosamine competition; format: cell-based; conditions: 100 nM, 2+46 hours
Method: Arg1 (FIG. 19A), CD206 (FIG. 19B) and CD163 (FIG. 19C), and protein levels of secreted anti-inflammatory CCL18 (FIG. 19D) and proinflammatory cytokines, CXCL10 (FIG. 19E) and IL-6 (FIG. 19F) (n=3, technical replicates) were then determined. Changes in both sets of cytokines were inhibited by blockade of unoccupied folate receptors with excess FA-glucosamine (2+46 hours, competition).

[3] = tested on: M2-induced THP-1 macrophages; assay: Reprogramming of M2-polarized THP-1 macrophages, marker mRNA by qPCR; format: cell-based, human; conditions: 48 hours incubation, FIGS. 3A-3F, compared with nontargeted Compound 1A
[4] = continuous incubation 48 hours, ELISA
[5] = dosing every other day from day 10, BALF day 21

Method for healthy mice: (FIGS. 20A-C) Measurement of plasma IL-6 (FIG. 20A), IFNα (FIG. 20B) and TNFα (FIG. 20C) (n=3). […] The effect of drug concentration on plasma levels of IL-6 (FIG. 20D), IFNα (FIG. 20E), and TNFα (FIG. 20F) was determined at 1.5 hours, 1 hour, or 1 hour after treatment, respectively (n=2) (FIG. 20G).
The effect of drug on plasma levels of IL-6 (FIG. 23C) and TNFα (FIG. 23D) was determined at 1 hour or 1.5 hours after treatment.

**Q.** `CCCCc1nc2c(N)nc3ccccc3c2n1CC(C)(C)OC(=O)OCCSSCC(NC(=O)CCC(NC(=O)c1ccc(NCc2cnc3nc(N)[nH]c(=O)c3n2)cc1)C(=O)O)C(=O)O` (centres unmarked) [Compound 1B] was tested. Which “secreted CCL18 polypeptide” value [1, 4] did it give?
**A.** reductions

**Q.** What about the “secreted IL-1β polypeptide” value [1, 4] of the same compound?
**A.** reductions

**Q.** What about the “reduction of secreted CCL18 and IL-1β, comparison of 1B with 1A” value ([1]; drug exposure limited to 2 hours, then 46 hours fresh medium) of the same compound?
**A.** superior

**Q.** And the “total number of BALF cells” value (BM-induced mice; different doses of Compound 1B)?
**A.** decreased in a dose-dependent manner

**Q.** And the “Arg1 (qPCR, lavage macrophages)” value (BM-induced mice; [5])?
**A.** suppressed

**Q.** And the “CD86 transcripts (qPCR)” value (BM-induced mice; [5])?
**A.** elevated

**Q.** What about the “IFN-γ concentration (ELISA of lavage fluid)” value (BM-induced mice; [5]) of the same compound?
**A.** elevated

**Q.** What about the IRAK-4 (BM-induced mice; [5]) of the same compound?
**A.** upregulation

**Q.** And the “MMP9 (qPCR, lavage macrophages)” value (BM-induced mice; [5])?
**A.** suppressed

**Q.** And the “TIMP 3 (qPCR, lavage macrophages)” value (BM-induced mice; [5])?
**A.** suppressed

**Q.** What about the “downregulation of biomarkers with excess FA-glucosamine (competitor)” value [2] of the same compound?
**A.** blocked

**Q.** What about the “systemic cytokine release (plasma IL-6, IFNα, TNFα)” value (healthy mice; 10 nmol tail vein) of the same compound?
**A.** does not

**Q.** What about the “inflammatory cytokine release, dose comparison” value (healthy mice; plasma at 1 or 1.5 hours, varied dose) of the same compound?
**A.** stimulates less inflammatory cytokine release than half the dose of Compound 1A

**Q.** What about the “M2 to M1 marker changes, magnitude of impact” value [3] of the same compound?
**A.** somewhat reduced

Reference: patent US20260284016A1, “COMBINATIONS AND METHODS FOR ENHANCING CHECKPOINT INHIBITOR THERAPIES IN CANCER TREATMENT” (PURDUE RESEARCH FOUNDATION, priority 2004, published 2026)
